Values after ≈ are worked out from the molar mass of the structure shown.
Experiments:
[1] = biological target: Histone deacetylase; assay: Inhibition of [3H]-Apicidin A binding to Histone deacetylase of chick liver extract; parameters: species or system Gallus gallus
[2] = biological target: Histone deacetylase (Eimeria tenella); assay: Displacement of [3H]-Apicidin A from Histone deacetylase of Eimeria tenella extract
[3] = Tested for parasite (malaria)-based antiproliferative assay; assay type: functional
[4] = test system: HeLa; assay: Tested for mammalian cell (HeLa)-based antiproliferative assay; assay type: functional, Homo sapiens
[5] = biological target: Histone deacetylase; assay: Tested for Histone deacetylase enzyme inhibition assay using mammalian cell nuclear extract (HeLa); assay type: protein assay, Homo sapiens
[6] = Tested for parasite (malaria)-based antiproliferative assay; ND means no data; assay type: functional

SMILES	IC50 [1]	IC50 [2]	IC50 [3]	AP50 [4]	IC50 [5]	IC50 [6]
CCC(=O)CCCCC[C@@H]1NC(=O)[C@H]2CCCCN2C(=O)[C@H]([C@@H](C)CC)NC(=O)[C@H](c2cn(CC(=O)OC)c3ccccc3c2=O)NC1=O [listing 1 of 2 here]	2 µg/mL (≈ 2.94 µM)	441 nM	0.79 µg/mL (≈ 1.16 µM)	–	–	–
CCC(=O)CCCCC[C@@H]1NC(=O)[C@H]2CCCCN2C(=O)[C@H]([C@@H](C)CC)NC(=O)[C@H](c2cn(CC(=O)OC)c3ccccc3c2=O)NC1=O [listing 2 of 2 here]	–	–	–	>10000 ng/mL	–	–
CCC(=O)CCCCC[C@@H]1NC(=O)[C@H]2CCCCN2C(=O)[C@H]([C@@H](C)CC)NC(=O)[C@H](c2cn(C)c3ccccc3c2=O)NC1=O [listing 1 of 2 here]	1 µg/mL (≈ 1.61 µM)	96.5 nM	0.117 µg/mL (≈ 0.188 µM)	–	241 nM	–
CCC(=O)CCCCC[C@@H]1NC(=O)[C@H]2CCCCN2C(=O)[C@H]([C@@H](C)CC)NC(=O)[C@H](c2cn(C)c3ccccc3c2=O)NC1=O [listing 2 of 2 here]	–	–	–	>10000 ng/mL	–	–
CCC(=O)CCCCC[C@@H]1NC(=O)[C@H]2CCCCN2C(=O)[C@H]([C@@H](C)CC)NC(=O)[C@H](Cc2cn(CC(=O)OC)c3ccccc23)NC1=O [listing 1 of 2 here]	0.005 µg/mL (≈ 0.00751 µM)	10.5 nM	0.25 µg/mL (≈ 0.375 µM)	–	–	–
CCC(=O)CCCCC[C@@H]1NC(=O)[C@H]2CCCCN2C(=O)[C@H]([C@@H](C)CC)NC(=O)[C@H](Cc2cn(CC(=O)OC)c3ccccc23)NC1=O [listing 2 of 2 here]	–	–	–	150 ng/mL	–	–
CCCn1cc(C[C@@H]2NC(=O)[C@H](CCCCCC(=O)CC)NC(=O)[C@H]3CCCCN3C(=O)[C@H]([C@@H](C)CC)NC2=O)c2ccccc21 [listing 1 of 2 here]	0.01 µg/mL (≈ 0.0157 µM)	47.2 nM	0.25 µg/mL (≈ 0.393 µM)	–	–	–
CCCn1cc(C[C@@H]2NC(=O)[C@H](CCCCCC(=O)CC)NC(=O)[C@H]3CCCCN3C(=O)[C@H]([C@@H](C)CC)NC2=O)c2ccccc21 [listing 2 of 2 here]	–	–	–	625 ng/mL	–	–
CCCn1cc([C@@H]2NC(=O)[C@H](CCCCCC(=O)CC)NC(=O)[C@H]3CCCCN3C(=O)[C@H]([C@@H](C)CC)NC2=O)c(=O)c2ccccc21 [listing 1 of 2 here]	0.7 µg/mL (≈ 1.08 µM)	192 nM	0.44 µg/mL (≈ 0.677 µM)	–	230 nM	–
CCCn1cc([C@@H]2NC(=O)[C@H](CCCCCC(=O)CC)NC(=O)[C@H]3CCCCN3C(=O)[C@H]([C@@H](C)CC)NC2=O)c(=O)c2ccccc21 [listing 2 of 2 here]	–	–	–	>10000 ng/mL	–	–
CCC(=O)CCCCC[C@@H]1NC(=O)[C@H]2CCCCN2C(=O)[C@H]([C@@H](C)CC)NC(=O)[C@H](c2cn(CC(=O)O)c3ccccc3c2=O)NC1=O [listing 1 of 2 here]	5 µg/mL (≈ 7.51 µM)	3000 nM	0.55 µg/mL (≈ 0.826 µM)	–	–	–
CCC(=O)CCCCC[C@@H]1NC(=O)[C@H]2CCCCN2C(=O)[C@H]([C@@H](C)CC)NC(=O)[C@H](c2cn(CC(=O)O)c3ccccc3c2=O)NC1=O [listing 2 of 2 here]	–	–	–	>10000 ng/mL	–	–
CCC(=O)CCCCC[C@@H]1NC(=O)[C@H]2CCCCN2C(=O)[C@H]([C@@H](C)CC)NC(=O)[C@H](c2cnc3ccccc3c2O)NC1=O	1 µg/mL (≈ 1.65 µM)	24.7 nM	0.04 µg/mL (≈ 0.0658 µM)	>10000 ng/mL	–	–
CCC(=O)CCCCC[C@@H]1NC(=O)[C@H]2CCCCN2C(=O)[C@H]([C@@H](C)CC)NC(=O)[C@H](c2cn(CC)c3ccccc3c2=O)NC1=O	2 µg/mL (≈ 3.15 µM)	110 nM	0.24 µg/mL (≈ 0.377 µM)	>10000 ng/mL	330 nM	–
CCC(=O)CCCCC[C@@H]1NC(=O)[C@H]2CCCCN2C(=O)[C@H]([C@@H](C)CC)NC(=O)[C@H](c2cn(OC)c3ccccc3c2=O)NC1=O	1 µg/mL (≈ 1.57 µM)	62.7 nM	0.04 µg/mL (≈ 0.0627 µM)	10000 ng/mL	86 nM	–
CCC(=O)CCCCC[C@@H]1NC(=O)[C@H]2CCCCN2C(=O)[C@H]([C@@H](C)CC)NC(=O)[C@H](Cc2cn(CC(=O)O)c3ccccc23)NC1=O	0.065 µg/mL (≈ 0.0997 µM)	99.7 nM	–	–	–	1 µg/mL (≈ 1.53 µM)
CCC(=O)CCCCC[C@@H]1NC(=O)[C@H]2CCCCN2C(=O)[C@H]([C@@H](C)CC)NC(=O)[C@H](Cc2cn(CC)c3ccccc23)NC1=O	0.01 µg/mL (≈ 0.0161 µM)	161 nM	0.18 µg/mL (≈ 0.289 µM)	–	–	–
CCC(=O)CCCCC[C@@H]1NC(=O)[C@H]2CCCCN2C(=O)[C@H]([C@@H](C)CC)NC(=O)[C@H](Cc2cn(C)c3ccccc23)NC1=O	0.005 µg/mL (≈ 0.00823 µM)	19.7 nM	0.02 µg/mL (≈ 0.0329 µM)	225 ng/mL	–	–
CCC(=O)CCCCC[C@@H]1NC(=O)[C@H]2CCCCN2C(=O)[C@H]([C@@H](C)CC)NC(=O)[C@H](Cc2cn(OC)c3ccccc23)NC1=O [APICIDIN]	–	–	0.057 µg/mL (≈ 0.0914 µM)	78 ng/mL	–	–

From ChEMBL document CHEMBL1133119, “Synthesis of apicidin-derived quinolone derivatives: parasite-selective histone deacetylase inhibitors and antiproliferative agents” (J Med Chem, 2000)
